# Results reported in patent US11655235B2, “Pyrrolidine and piperidine compounds” (YUHAN CORPORATION, priority 2019, dated 2023).
# Biological target: T1, Recombinant human FAP (Homo sapiens, UniProt Q12884)
# T1 construct: purchased R&D systems
# T1 sequence (Q12884 1-760): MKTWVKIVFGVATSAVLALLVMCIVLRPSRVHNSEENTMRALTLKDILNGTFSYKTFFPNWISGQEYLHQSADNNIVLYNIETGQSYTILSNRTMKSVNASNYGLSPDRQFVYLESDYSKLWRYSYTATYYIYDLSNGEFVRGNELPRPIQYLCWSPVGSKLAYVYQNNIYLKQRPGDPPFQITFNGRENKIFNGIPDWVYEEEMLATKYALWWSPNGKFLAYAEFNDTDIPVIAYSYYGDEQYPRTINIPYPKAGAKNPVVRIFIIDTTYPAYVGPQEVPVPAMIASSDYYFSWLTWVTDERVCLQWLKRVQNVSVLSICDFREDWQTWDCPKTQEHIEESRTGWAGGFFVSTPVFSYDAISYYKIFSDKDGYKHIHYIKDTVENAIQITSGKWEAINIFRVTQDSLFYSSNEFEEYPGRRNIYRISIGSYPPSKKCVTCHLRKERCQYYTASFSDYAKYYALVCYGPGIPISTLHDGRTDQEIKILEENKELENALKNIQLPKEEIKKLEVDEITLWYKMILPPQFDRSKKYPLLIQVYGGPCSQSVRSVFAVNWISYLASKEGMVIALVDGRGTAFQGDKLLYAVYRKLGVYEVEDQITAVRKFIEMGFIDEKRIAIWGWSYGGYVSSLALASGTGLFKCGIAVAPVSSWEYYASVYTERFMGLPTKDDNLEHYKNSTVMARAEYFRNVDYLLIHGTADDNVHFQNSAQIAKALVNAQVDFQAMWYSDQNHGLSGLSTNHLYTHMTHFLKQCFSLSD
# Assay: FAP inhibition, fluorogenic substrate Z-Gly-Pro-AMC
# Format: biochemical
# Settings: 25° C., Z-Gly-Pro-AMC substrate
# Method: The compounds according to the present technology were evaluated in terms of the inhibitory effect on the activity of dipeptidyl peptidases including FAP by using a substrate producing fluorescent substances upon enzymatic decomposition. The test was conducted at 25° C. to get a final reaction volume of 100 μL in a 96 black well plate. […] Briefly, the test compounds were dissolved in dimethyl sulfoxide (DMSO) at a concentration of 20 mM and then subjected to serial dilution, thereby creating an 8 point curve. As for the control group, a 6 point curve created by serial dilution of Talabostat in the same buffer solution was used. Fluorescence intensity was measured using a microplate reader (Flexstation3, Molecular Devices) under the wavelength condition exciting at 380 nm and reading the emission at 460 nm. The inhibitory effect of the test compounds was measured as a decrease (%) in the signal rate as compared to the control group without any inhibitor. Data was fixed to a logistic model with four variables and IC50 value was calculated using GraphPad Prism program. Recombinant human FAP (R&D systems) was diluted with 50 mM tris (pH 7.5) buffer comprising 1 M of sodium chloride and 1 mg/ml of bovine serum albumin (BSA) to be 10 ng per final reaction. The test compounds were subjected to serial dilution in a buffer under the condition containing up to 0.1% of DMSO. Z-Gly-Pro-AMC (Bachem) was used as a substrate. By dissolving in DMSO and then diluting in the same buffer, the substrate was added to be […] per final reaction.
row,IC50,SMILES
1,86.1 nM,"CN(c1ccc2ccccc2n1)[C@@H]1CCN(CC(=O)N2CCC[C@H]2C#N)C1 [Example 137, (2S)-1-[2-[(3R)-3-[methyl(2-quinolyl)amino]pyrrolidin-1-yl]acetyl]pyrrolidine-2-carbonitrile]"
2,34.1 nM,"CN(c1ccc2cccnc2c1)[C@@H]1CCN(CC(=O)N2CCC[C@H]2C#N)C1 [Example 141, (2S)-1-[2-[(3R)-3-[methyl(7-quinolyl)amino]pyrrolidin-1-yl]acetyl]pyrrolidine-2-carbonitrile]"
3,55.4 nM,"CN(c1ccnc2ccccc12)[C@H]1CCN(CC(=O)N2CCC[C@H]2C#N)C1 [Example 143, (2S)-1-[2-[(3S)-3-[methyl(4-quinolyl)amino]pyrrolidin-1-yl]acetyl]pyrrolidine-2-carbonitrile]"
4,14.7 nM,"CN(c1cncc2ccccc12)[C@H]1CCN(CC(=O)N2CCC[C@H]2C#N)C1 [Example 147, (2S)-1-[2-[(3S)-3-[4-isoquinolyl(methyl)amino]pyrrolidin-1-yl]acetyl]pyrrolidine-2-carbonitrile]"

# Same assay, conditions: recombinant human FAP, substrate Z-Gly-Pro-AMC
row,IC50,SMILES
1,29 nM,"N#C[C@@H]1CCCN1C(=O)CN1CC[C@@H](Nc2ccc3cccnc3c2)C1 [Example 163, (2S)-1-[2-[(3R)-3-(7-quinolylamino)pyrrolidin-1-yl]acetyl]pyrrolidine-2-carbonitrile]"
2,56.8 nM,"N#C[C@@H]1CCCN1C(=O)CN1CC[C@@H](Nc2cccc3cccnc23)C1 [Example 164, (2S)-1-[2-[(3R)-3-(8-quinolylamino)pyrrolidin-1-yl]acetyl]pyrrolidine-2-carbonitrile]"
3,11.5 nM,"N#C[C@@H]1C[C@H](F)CN1C(=O)CN1CC[C@@H](Nc2ccc3cccnc3c2)C1 [Example 168, (2S,4S)-4-fluoro-1-[2-[(3R)-3-(7-quinolylamino)pyrrolidin-1-yl]acetyl]pyrrolidine-2-carbonitrile]"
4,35.4 nM,"N#C[C@@H]1C[C@H](F)CN1C(=O)CN1CC[C@@H](Nc2cccc3cccnc23)C1 [Example 169, (2S,4S)-4-fluoro-1-[2-[(3R)-3-(8-quinolylamino)pyrrolidin-1-yl]acetyl]pyrrolidine-2-carbonitrile]"
